Where “and” joins values, the source holds several entries; their conditions need not be identical. Identical values can stand only once.
Assays:
5-HT2A [1] = biological target: T1, 5-HT2A (Homo sapiens (Human), UniProt P28223); assay: Radioligand binding assay, [^3H]5-HT competition, 5-HT2A; conditions: [^3H]5-HT radioligand, membranes of HEK293 cells expressing recombinant 5-HT2A; Ki from IC50 by Cheng-Prusoff; read-out: 5-HT2A serotonin binding Ki value
5-HT2A [2] = biological target: T1, 5-HT2A; assay: HTRF IP-One antagonist assay, 5-HT2A; type: cell-based; conditions: HEK293 cells stably expressing receptor, inositol phosphate accumulation, 80 nM 5-HT in Assay Buffer;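 further: clonal line with low receptor density (about 50–70 fmol/mg), 10-point dose-response from 10 µM in 5-fold steps, HTRF detection after 1 hr, triplicate points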
5-HT2B = 5-HT2B (Homo sapiens (Human), UniProt P41595); assay: HTRF IP-One antagonist assay, 5-HT2B; type: cell-based; conditions: HEK293 cells stably expressing receptor, inositol phosphate accumulation, 80 nM 5-HT in Assay Buffer;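 further: clonal HEK293 line with low 5-HT2B expression (estimated 150-200 fmol/mg by radioligand binding), IP-One HTRF readout, 10-point curves from 10 µM in 5-fold steps, triplicate points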
5-HT2C = 5-HT2C (Homo sapiens (Human), UniProt P28335); assay: HTRF IP-One antagonist assay, 5-HT2C; type: cell-based; conditions: HEK293 cells stably expressing receptor, inositol phosphate accumulation, 80 nM 5-HT in Assay Buffer;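 further: clonal HEK293 line with low 5-HT2C density (10–20 fmol/mg), HTRF detection of IP-One, 10-point dose curves from 10 µM in 5-fold steps, triplicate points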
Sequence of 5-HT2C (P28335 33-458): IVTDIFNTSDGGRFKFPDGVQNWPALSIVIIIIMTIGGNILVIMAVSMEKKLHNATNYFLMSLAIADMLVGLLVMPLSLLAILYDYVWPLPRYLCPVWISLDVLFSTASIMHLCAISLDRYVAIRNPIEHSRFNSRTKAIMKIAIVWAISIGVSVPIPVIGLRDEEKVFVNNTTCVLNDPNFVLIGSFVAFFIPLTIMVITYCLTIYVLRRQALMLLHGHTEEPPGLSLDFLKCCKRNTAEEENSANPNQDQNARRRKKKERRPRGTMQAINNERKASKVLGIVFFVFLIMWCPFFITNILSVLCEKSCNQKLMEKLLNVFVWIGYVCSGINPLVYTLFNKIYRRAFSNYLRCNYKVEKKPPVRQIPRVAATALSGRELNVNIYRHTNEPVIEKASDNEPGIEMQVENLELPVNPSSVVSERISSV

T1 sequence (P28223 whole entry): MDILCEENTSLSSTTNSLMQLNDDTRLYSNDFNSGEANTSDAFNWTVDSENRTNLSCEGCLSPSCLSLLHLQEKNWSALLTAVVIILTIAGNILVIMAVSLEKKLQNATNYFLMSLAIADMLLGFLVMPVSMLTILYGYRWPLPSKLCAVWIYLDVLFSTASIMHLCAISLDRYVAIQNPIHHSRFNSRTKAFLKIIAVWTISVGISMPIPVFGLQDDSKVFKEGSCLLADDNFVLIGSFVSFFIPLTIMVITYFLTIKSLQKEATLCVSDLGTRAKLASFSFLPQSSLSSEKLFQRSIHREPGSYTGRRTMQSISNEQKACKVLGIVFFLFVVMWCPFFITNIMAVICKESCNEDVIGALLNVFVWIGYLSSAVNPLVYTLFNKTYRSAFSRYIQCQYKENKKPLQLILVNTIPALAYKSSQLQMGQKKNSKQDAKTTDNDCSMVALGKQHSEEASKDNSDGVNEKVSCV
Sequence of 5-HT2B (P41595 whole entry): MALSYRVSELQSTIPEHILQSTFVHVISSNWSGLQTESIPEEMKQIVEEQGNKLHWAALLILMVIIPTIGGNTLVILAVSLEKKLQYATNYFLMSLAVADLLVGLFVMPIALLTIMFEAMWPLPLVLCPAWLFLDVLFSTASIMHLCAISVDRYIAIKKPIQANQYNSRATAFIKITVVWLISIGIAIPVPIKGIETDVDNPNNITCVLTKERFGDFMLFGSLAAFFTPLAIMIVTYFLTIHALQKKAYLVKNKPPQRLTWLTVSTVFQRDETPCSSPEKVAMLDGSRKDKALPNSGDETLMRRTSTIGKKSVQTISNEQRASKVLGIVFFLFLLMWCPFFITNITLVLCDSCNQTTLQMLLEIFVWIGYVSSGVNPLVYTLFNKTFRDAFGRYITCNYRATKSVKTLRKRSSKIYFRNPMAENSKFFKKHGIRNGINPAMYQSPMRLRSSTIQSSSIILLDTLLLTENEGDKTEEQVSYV

Compound	Ki (5-HT2A [1])	IC50 (5-HT2A [2]) [nM]	IC50 (5-HT2B) [nM]	IC50 (5-HT2C) [nM]
COC1(C(=O)Nc2ccc(OCCN3CCCC3)c(-c3c(C)ncnc3C)c2)CC1 [Compound 244, N-[3-(4,6-dimethylpyrimidin-5-yl)-4-(2-pyrrolidin-1-ylethoxy)phenyl]-1-methoxy-cyclopropanecarboxamide]	6.51 nM	13.5	100000	100000
Cc1ncnc(C)c1-c1cc(NC(=O)C2(CF)CC2)ccc1OCCN1CCCC1 [Compound 293, N-(3-(4,6-dimethylpyrimidin-5-yl)-4-(2-(pyrrolidin-1-yl)ethoxy)phenyl)-1-(fluoromethyl)cyclopropane-1-carboxamide]	8.56 nM	15.9	9370	100000
COc1ccc(CC(=O)Nc2ccc(OCCN3CCCC3)c(-c3c(C)ncnc3C)c2)cc1 [Compound 276, N-(3-(4,6-dimethylpyrimidin-5-yl)-4-(2-(pyrrolidin-1-yl)ethoxy)phenyl)-2-(4-methoxyphenyl)acetamide]	0.843 nM	3.07	100000	100000
Cc1ncnc(C)c1-c1cc(NC(=O)C2CC2)ccc1OC1CNC1 [Compound 396, N-[4-(azetidin-3-yloxy)-3-(4,6-dimethylpyrimidin-5-yl)phenyl]cyclopropanecarboxamide]	5.93 nM	50.5	100000	100000
Cc1ncnc(C)c1-c1cc(NC(=O)Cc2cccc(F)c2)ccc1OCCN1CCCC1 [Compound 275, N-(3-(4,6-dimethylpyrimidin-5-yl)-4-(2-(pyrrolidin-1-yl)ethoxy)phenyl)-2-(3-fluorophenyl)acetamide]	1.7 nM	6.32	100000	100000
Cc1ncnc(C)c1-c1cc(NC(=O)c2c(F)cnn2C)ccc1OCCN1CCC1 [Compound 316, N-(4-(2-(azetidin-1-yl)ethoxy)-3-(4,6-dimethylpyrimidin-5-yl)phenyl)-4-fluoro-1-methyl-1H-pyrazole-5-carboxamide]	4.98 nM	6.99	3190	100000
Cc1ncnc(C)c1-c1cc(NC(=O)Cc2ccno2)ccc1OCCN1CCCC1 [Compound 263, N-(3-(4,6-dimethylpyrimidin-5-yl)-4-(2-(pyrrolidin-1-yl)ethoxy)phenyl)-2-(isoxazol-5-yl)acetamide]	10.1 nM	35.9	100000	100000
CCOC1CC1C(=O)Nc1ccc(OCCN2CCCC2)c(-c2c(C)ncnc2C)c1 (stereo not drawn) [Compound 291, N-(3-(4,6-dimethylpyrimidin-5-yl)-4-(2-(pyrrolidin-1-yl)ethoxy)phenyl)-2-ethoxycyclopropane-1-carboxamide]	5.04 nM and 15.5 nM	9.75	100000	100000
Cc1ncnc(C)c1-c1cc(NC(=O)c2ccc(F)cc2)ccc1OCCN1CCC1 [Compound 309, N-(4-(2-(azetidin-1-yl)ethoxy)-3-(4,6-dimethylpyrimidin-5-yl)phenyl)-4-fluorobenzamide]	1.71 nM	6.32	806	100000
Cc1ncnc(C)c1-c1cc(NC(=O)c2cccn2C)ccc1OCCN1CCCC1 [Compound 200, N-(3-(4,6-dimethylpyrimidin-5-yl)-4-(2-(pyrrolidin-1-yl)ethoxy)phenyl)-1-methyl-1H-pyrrole-2-carboxamide]	3.72 nM	11.7	100000	100000
Cc1ncnc(C)c1-c1cc(NC(=O)Cc2cncc(F)c2)ccc1OCCN1CCC1 [Compound 314, N-(4-(2-(azetidin-1-yl)ethoxy)-3-(4,6-dimethylpyrimidin-5-yl)phenyl)-2-(5-fluoropyridin-3-yl)acetamide]	5.42 nM	15.3	100000	100000
Cc1ncnc(C)c1-c1cc(NC(=O)C2(F)CC2)ccc1OCCN1CCCC1 [Compound 233]	3.81 nM and 4.66 nM	8.55	100000	100000

From patent US20250270172A1, “Pyrimidine Derivatives As Modulators of the 5-HT2A Serotonin Receptor Useful For The Treatment of Disorders Related Thereto” (Arena Pharmaceuticals, Inc., priority 2020, published 2025)
